Source: patent US6960692B2, “Diaryl sulfide derivative, addition salt thereof, and immunosuppressant” (Kyorin Pharmaceutical Co., Ltd., priority 2001, dated 2005)

Columns and labels:
male BALB/c mice = assay: Ability of test compounds to suppress delayed-type hypersensitivity in mice (DNFB, ear thickness); type: in vivo; conditions: dose 1 mg/kg orally 30 minutes before DNFB challenge; ear thickness increase 24 hours after the challenge
Experimental: <Experiment 2> Ability of Test Compounds to Suppress Delayed-Type Hypersensitivity in Mice. […] The sensitization was done for 2 consecutive days (day 0 and day 1). On day 5, the mice were challenged with the antigen to induce delayed-type hypersensitive responses: First, the initial thickness of each ear was measured by the dial thickness gauge G (0.01-10 mm, OZAKI MFG Co., Ltd.) and a test compound was administered. 30 minutes after the administration, 10 μL of a 0.2% (v/v) DNFB solution was applied to the inner and outer surfaces of the right ear of each animal for antigen challenge. The left ear of each animal was challenged with the solvent alone. 24 hours after the challenge, the increase in the ear thickness was measured for each ear and the difference in thickness between the right and the left ears was determined for each individual. The test compound was dissolved, or suspended, in an ultra pure water and was orally administered at a dose of 0.1 mL/10 g of body weight. A control group was administered ultra pure water alone.

male C3H/HeN mice = assay: Ability of test compounds to suppress graft host vs rejection in mice (popliteal lymph node weight); type: in vivo; conditions: right popliteal lymph node weight 4 days after injection of BALB/c stimulation cells
Description: Ability of Test Compounds to Suppress Graft Host vs Rejection in Mice […] Spleens were collected from 9 to 11 week old male BALB/c mice (CLEA JAPAN Inc., CHARLES RIVER JAPAN Inc., or JAPAN SLC Inc.). The spleens were placed in a phosphate-buffered saline (PBS(-), NISSUI PHARMACEUTICAL Co., Ltd.) or in an RPMI-1640 medium (GIBCO […] Inc., or IWAKI GLASS Co., Ltd.) and were either passed through a stainless steel mesh, or gently pressed between two slide glasses and then passed through a cell strainer (70 μm, Falcon), to form a cell suspension. The suspension was then centrifuged and the supernatant was discarded. An ammonium chloride-Tris isotonic buffer was added to the suspension to lyse erythrocytes. The cells were then centrifuged and washed three times in PBS (-) or RPMI-1640 medium and were resuspended in an RPMI-1640 medium. […] The cells were again centrifuged and washed in PBS (-) or RPMI-1640 medium and were resuspended in an RPMI-1640 medium so that the medium would contain 2.5×10^8 cells/mL. This suspension served as a “stimulation cell suspension.” Using a 27G needle along with a microsyringe (Hamilton), 20 μL (5×10^6 cells/mouse) of the stimulation cell suspension was subcutaneously injected into the right hind footpad of 7 to 9 week old male C3H/HeN mice (CLEA JAPAN Inc., CHARLES RIVER JAPAN Inc., or JAPAN SLC Inc.). […]

melting point [°C] | Compound | Inhibition (%) (male BALB/c mice) | Inhibition (%) (male C3H/HeN mice; dose 0.03 mg/kg intraperitoneally once a day for four consecutive days) | Inhibition (%) (male C3H/HeN mice; dose 0.3 mg/kg intraperitoneally once a day for four consecutive days)
132 to 133 | Cl.NC(CO)(CO)CCCc1ccc(Sc2cccc(OCc3ccccc3)c2)cc1Cl [Example 36, 2-amino-2-[4-(3-benzyloxyphenylthio)-2-chlorophenyl]propyl-1,3-propanediol hydrochloride] | 86 | 85 | 
 | Cl.NC(CO)(CO)CCc1ccc(Sc2cccc(OCc3ccccc3)c2)cc1Cl [Example 46, 2-amino-2-[4-(3-benzyloxyphenylthio)-2-chlorophenyl]ethyl-1,3-propanediol Hydrochloride] |  |  | 80
